In assay [1] the target is T1, calpain-1 (Homo sapiens, UniProt P07384).
T1 sequence (P07384 1-714): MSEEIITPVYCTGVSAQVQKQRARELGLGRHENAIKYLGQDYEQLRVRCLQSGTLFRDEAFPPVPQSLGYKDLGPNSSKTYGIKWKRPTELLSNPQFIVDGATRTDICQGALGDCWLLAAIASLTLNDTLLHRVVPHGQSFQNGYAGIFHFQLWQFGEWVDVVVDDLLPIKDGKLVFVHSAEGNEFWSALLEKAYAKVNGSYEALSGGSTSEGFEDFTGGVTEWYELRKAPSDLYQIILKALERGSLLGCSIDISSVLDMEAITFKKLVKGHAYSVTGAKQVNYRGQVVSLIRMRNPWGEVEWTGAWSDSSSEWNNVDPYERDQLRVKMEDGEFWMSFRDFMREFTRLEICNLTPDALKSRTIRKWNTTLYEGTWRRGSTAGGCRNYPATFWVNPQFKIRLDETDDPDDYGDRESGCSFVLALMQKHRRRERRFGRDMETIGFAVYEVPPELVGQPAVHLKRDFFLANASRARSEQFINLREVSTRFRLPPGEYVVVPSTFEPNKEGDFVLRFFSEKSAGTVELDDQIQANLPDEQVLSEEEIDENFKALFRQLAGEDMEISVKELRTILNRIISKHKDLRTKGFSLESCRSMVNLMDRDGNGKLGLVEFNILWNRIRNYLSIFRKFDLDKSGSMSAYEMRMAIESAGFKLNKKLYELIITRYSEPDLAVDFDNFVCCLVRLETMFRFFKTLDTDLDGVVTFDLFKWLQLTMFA
T1 sequence (P04632 1-268 partner): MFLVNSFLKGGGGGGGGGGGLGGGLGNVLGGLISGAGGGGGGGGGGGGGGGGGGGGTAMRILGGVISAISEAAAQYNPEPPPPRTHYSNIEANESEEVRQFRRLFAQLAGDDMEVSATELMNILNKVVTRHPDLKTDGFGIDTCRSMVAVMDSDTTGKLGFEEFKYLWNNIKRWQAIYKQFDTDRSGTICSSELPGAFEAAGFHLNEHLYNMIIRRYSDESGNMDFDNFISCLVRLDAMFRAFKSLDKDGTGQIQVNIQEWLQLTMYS
As to the kind of experiment: in vitro calpain-1 inhibition, succinic-Leu-Tyr-AMC substrate. Format: biochemical. The protocol:
Formula 1, where chiral center 1 is the L-form and chiral center 2 is a racemic mixture of D- and L- in this example was introduced at various concentrations (from 1 nM to 10 μM) into an in vitro mix comprising succinic-Leu-Tyr-AMC and calpain-1 or calpain-2 (Sasaki et al, 1984), and the kinetics of the loss of fluorescence were determined for each of the calpains (Powers et al, 2000). […] Therefore, the assessment of selectivity described herein was different than the prior teaching.
Formula 1A, where chiral center 1 is the S-form and chiral center 2 is the S-form was separated from the S-R-form (Formula 1B) using methods that are well-known methods for separating diastereoisomers. Formula 1A, which is also referred to herein as compound 18A, in this example was introduced at various concentrations into an in vitro mix comprising succinic-Leu-Tyr-AMC and μ-calpain or m-calpain (Sasaki et al, 1984), and the kinetics of the loss of fluorescence were determined for each of the calpains.

Assay [2] has as its target T1, calpain-1. The conditions noted are these: Li et al, 1996; read-out: Ki for calpain-1 (μ-calpain), literature; cited from earlier work.
Assay [3] deals with cultured cortical neurons. Nature of the assay: Bic- and 4-AP-induced neuroprotection against starvation, Hoechst staining. The format is cell-based. The following applies: mCalp-I 200 nM. From the text:
Neuronal death was observed and quantified by Hoechst staining. 300-500 neurons were counted for each group in three to 6 independent experiments. *p<0.05; ns, no significant difference; one-way ANOVA followed by Bonferroni test. n=3-6. Error Bar indicates SEM
Neuronal death was observed and quantified by Hoechst staining. 300-500 neurons were counted for each group in three to 6 independent experiments. *p<0.05; ns, no significant difference; one-way ANOVA followed by Bonferroni test. n=3-6. Error Bar indicates SEM (FIG. 6).

Where two headings read alike, the source gives them in different places.

One may read the IC50 as the concentration that inhibits the measured activity by half. Take `CCC(NC(=O)C(CC(C)C)NC(=O)OCc1ccccc1)C(=O)C(=O)NCc1cc(OC)cc(OC)c1` (racemic) [Formula 1, Z-Leu-Abu-CONH—CH2-C6H3 (3, 5-(OMe)2)]: the Ki in assay [1] (Example 1, chiral center 2 racemic, read-out: Ki of calpain-1, re-determined herein) was 1290 nM; in assay [1] (Example 13, n = 3-5, read-out: Ki Calpain-1), 662 nM; in assay [1] (earlier value, unit inferred, read-out: Previous Value (Calpain-1)) it was 940 nM; in assay [2] it was 2300 nM. The compound also came in with an IC50 in assay [1] (n = 3-5) of 910 nM. Moreover, in assay [3], the “blocked Bic- and 4-AP-induced neuroprotection against starvation” value was “not”.
